Test results as given in PubChem BioAssay AID256 (DTP/NCI, 2004).
Where “and” joins values, the source holds several entries; their conditions need not be identical. Identical values can stand only once. Inconclusive results and toxic doses are left out. The calls were made as follows: active = survival T/C of 150% or more; inactive = T/C below 125% in these data.

System: CD2F1 mice, L1210 leukemia ip, survival T/C
Experiment: NCI In Vivo Anticancer Drug Screen. Data for tumor model L1210 Leukemia (intraperitoneal) in CD2F1 (CDF1) mice
Settings: higher = longer survival
How it was run: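 Activity against a transplanted murine tumor was judged by comparing the compound group with a vehicle group. The outcome in the treated animals was divided by that in the controls.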

[1] = endpoint: mean survival time, dose: 100.0 mg/kg/injection, schedule: Q04DX003 (ip), vehicle: saline with Tween-80
[2] = endpoint: mean survival time, dose: 200.0 mg/kg/injection, schedule: Q04DX003 (ip), vehicle: saline with Tween-80
[3] = endpoint: mean survival time, dose: 400.0 mg/kg/injection, schedule: Q04DX003 (ip), vehicle: saline with Tween-80

Measured: T/C

NC(=O)c1ncn(C2OCC(O)C(O)C2O)c1N (stereo not drawn)
inactive: endpoint: mean survival time, dose: 12.5 mg/kg/injection, schedule: Q01DX005 (ip), vehicle: water 87 % of control and 95 % of control | endpoint: mean survival time, dose: 25.0 mg/kg/injection, schedule: Q01DX005 (ip), vehicle: water 90 % of control and 93 % of control | endpoint: mean survival time, dose: 50.0 mg/kg/injection, schedule: Q01DX005 (ip), vehicle: water 92 % of control | endpoint: mean survival time, dose: 100.0 mg/kg/injection, schedule: Q01DX005 (ip), vehicle: water 98 % of control | endpoint: mean survival time, dose: 200.0 mg/kg/injection, schedule: Q01DX005 (ip), vehicle: water 98 % of control and 95 % of control | endpoint: median survival time, dose: 12.5 mg/kg/injection, schedule: Q01DX005 (ip), vehicle: water 96 % of control | endpoint: median survival time, dose: 25.0 mg/kg/injection, schedule: Q01DX005 (ip), vehicle: water 106 % of control | endpoint: median survival time, dose: 50.0 mg/kg/injection, schedule: Q01DX005 (ip), vehicle: water 102 % of control | endpoint: median survival time, dose: 100.0 mg/kg/injection, schedule: Q01DX005 (ip), vehicle: water 98 % of control | endpoint: median survival time, dose: 200.0 mg/kg/injection, schedule: Q01DX005 (ip), vehicle: water 108 % of control

CCCC(C#N)OC(=O)c1ccccc1 (stereo not drawn)
inactive: endpoint: mean survival time, dose: 25.0 mg/kg/injection, schedule: Q01DX009 (ip), vehicle: saline with Tween-80 96 % of control | endpoint: mean survival time, dose: 50.0 mg/kg/injection, schedule: Q01DX009 (ip), vehicle: saline with Tween-80 104 % of control | [1] 101 % of control

O=C(Cc1ccccn1)NCC(O)c1ccccc1 (stereo not drawn)
inactive: endpoint: mean survival time, dose: 100.0 mg/kg/injection, schedule: Q04DX003 (ip), vehicle: saline 89 % of control | endpoint: mean survival time, dose: 200.0 mg/kg/injection, schedule: Q04DX003 (ip), vehicle: saline 102 % of control | endpoint: mean survival time, dose: 400.0 mg/kg/injection, schedule: Q04DX003 (ip), vehicle: saline 100 % of control

CCCCCOCC
inactive: endpoint: mean survival time, dose: 100.0 mg/kg/injection, schedule: Q04DX002 (ip), vehicle: saline with Tween-80 102 % of control | endpoint: mean survival time, dose: 200.0 mg/kg/injection, schedule: Q04DX002 (ip), vehicle: saline with Tween-80 98 % of control | endpoint: mean survival time, dose: 400.0 mg/kg/injection, schedule: Q04DX002 (ip), vehicle: saline with Tween-80 98 % of control

CCOC(=O)C1CN(C(=O)OCC)CC1=O (stereo not drawn)
inactive: endpoint: mean survival time, dose: 50.0 mg/kg/injection, schedule: Q01DX001 (ip), vehicle: other 103 % of control | endpoint: mean survival time, dose: 100.0 mg/kg/injection, schedule: Q01DX001 (ip), vehicle: other 106 % of control | endpoint: mean survival time, dose: 200.0 mg/kg/injection, schedule: Q01DX001 (ip), vehicle: other 107 % of control | endpoint: mean survival time, dose: 400.0 mg/kg/injection, schedule: Q01DX001 (ip), vehicle: other 109 % of control

Clc1ccc(-n2cccc2)cc1
inactive: [1] 98 % of control | [2] 91 % of control | [3] 98 % of control

COc1ccc2ccccc2c1-c1c(OC)ccc2ccccc12
inactive: endpoint: mean survival time, dose: 100.0 mg/kg/injection, schedule: Q01DX001 (ip), vehicle: saline with Tween-80 100 % of control | endpoint: mean survival time, dose: 200.0 mg/kg/injection, schedule: Q01DX001 (ip), vehicle: saline with Tween-80 103 % of control | endpoint: mean survival time, dose: 400.0 mg/kg/injection, schedule: Q01DX001 (ip), vehicle: saline with Tween-80 100 % of control

N#CCCC(CCC#N)c1ccccc1
inactive: endpoint: mean survival time, dose: 100.0 mg/kg/injection, schedule: Q01DX009 (ip), vehicle: saline with Tween-80 107 % of control | [1] 106 % of control | endpoint: mean survival time, dose: 200.0 mg/kg/injection, schedule: Q01DX009 (ip), vehicle: saline with Tween-80 103 % of control | [2] 93 % of control | endpoint: mean survival time, dose: 400.0 mg/kg/injection, schedule: Q01DX009 (ip), vehicle: saline with Tween-80 105 % of control | [3] 104 % of control

CC(=O)NC1CCCC(C)C1 (stereo not drawn)
inactive: [1] 96 % of control | [2] 96 % of control | [3] 96 % of control
